Experimental data from patent publication US12077503B2, “Substituted cyclic amides and their use as herbicides” (FMC CORPORATION, priority 2015, dated 2024).

Key:
Assay type in all cases: in vivo
[1] = system: ragweed (common ragweed, Ambrosia elatior); experiment: Test A preemergence; conditions: Ambrosia artemisiifolia, pre-emergence, 240 h, 0 to 100 scale where 0 is no effect and 100 is complete control, read-out: Ragweed plant response rating; for pest or weed control at 31 g/ha: 31 g ai/ha, Preemergence; for pest or weed control at 125 g/ha: 125 g ai/ha, preemergence, approx. 10 d
Outline: (§1)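 Preemergence directed soil spray on seeded pots, or postemergence application to plants 2–10 cm, one- to two-leaf. Solvent mixture non-phytotoxic, with surfactant. Scored ~10 d later, visually, 0–100 vs untreated.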

[2] = system: Kochia (Kochia scoparia); experiment: Test A preemergence; conditions: Bassia scoparia, pre-emergence, 240 h, 0 to 100 scale where 0 is no effect and 100 is complete control, read-out: Kochia plant response rating; for pest or weed control at 31 g/ha: 31 g ai/ha, Preemergence; for pest or weed control at 125 g/ha: 125 g ai/ha, preemergence, approx. 10 d
Outline: as §1

[3] = system: ryegrass, Italian (Italian ryegrass, Lolium multiflorum); experiment: Test A preemergence; conditions: Lolium multiflorum, pre-emergence, 240 h, 0 to 100 scale where 0 is no effect and 100 is complete control, read-out: Ryegrass, Italian plant response rating; for pest or weed control at 31 g/ha: 31 g ai/ha, Preemergence; for pest or weed control at 125 g/ha: 125 g ai/ha, preemergence, approx. 10 d
Outline: as §1

[4] = system: giant foxtail (Setaria faberii); experiment: Test A preemergence; conditions: Setaria faberi, pre-emergence, 240 h, 0 to 100 scale where 0 is no effect and 100 is complete control, read-out: Foxtail, Giant plant response rating; for pest or weed control at 31 g/ha: 31 g ai/ha, Preemergence; for pest or weed control at 125 g/ha: 125 g ai/ha, preemergence, approx. 10 d
Outline: as §1

[5] = system: pigweed (Amaranthus retroflexus); experiment: Test A preemergence; conditions: Amaranthus retroflexus, pre-emergence, 240 h, 0 to 100 scale where 0 is no effect and 100 is complete control, read-out: Pigweed plant response rating; for pest or weed control at 31 g/ha: 31 g ai/ha, Preemergence; for pest or weed control at 125 g/ha: 125 g ai/ha, preemergence, approx. 10 d
[6] = system: barnyardgrass (Echinochloa crus-galli); experiment: Test A preemergence; conditions: Echinochloa crus-galli, pre-emergence, 240 h, 0 to 100 scale where 0 is no effect and 100 is complete control, read-out: Barnyardgrass plant response rating; for pest or weed control at 31 g/ha: 31 g ai/ha, Preemergence; for pest or weed control at 125 g/ha: 125 g ai/ha, preemergence, approx. 10 d
Outline: as §1

[7] = system: Galium (catchweed bedstraw, Galium aparine); experiment: Test A postemergence; conditions: Galium, post-emergence, 240 h; for pest or weed control at 125 g/ha: 125 g ai/ha, postemergence, visual injury on 0 to 100 scale (0 no effect, 100 complete control), approx. 10 d, read-out: Galium plant response rating; for pest or weed control at 31 g/ha: Postemergence, 31 g ai/ha, visual injury after approx. 10 d, 0 to 100 scale, 0 no effect, 100 complete control, read-out: Plant response rating, Galium
Outline: as §1

[8] = system: corn (Zea mays); experiment: Test A postemergence; conditions: Zea mays, post-emergence, 240 h; for plant injury at 125 g/ha: 125 g ai/ha, postemergence, visual injury on 0 to 100 scale (0 no effect, 100 complete control), approx. 10 d, read-out: Corn plant response rating; for Corn plant response rating (crop injury, 0 = no effect, 100 = complete kill) at 31 g/ha: Postemergence, 31 g ai/ha, visual injury after approx. 10 d, 0 to 100 scale, 100 complete control
Outline: as §1

[9] = system: ragweed (common ragweed, Ambrosia elatior); experiment: Test A postemergence; conditions: Ambrosia artemisiifolia, post-emergence, 240 h; for pest or weed control at 125 g/ha: 125 g ai/ha, postemergence, visual injury vs untreated controls after approx. 10 d, 0 = no effect, 100 = complete control, read-out: Ragweed plant response rating (0 to 100 scale); for pest or weed control at 31 g/ha: Postemergence, 31 g ai/ha, visual injury after approx. 10 d, 0 to 100 scale, 0 no effect, 100 complete control, read-out: Plant response rating, Ragweed
Outline: as §1

[10] = system: wheat (Triticum aestivum); experiment: Test A postemergence; conditions: Triticum aestivum, post-emergence, 240 h; for plant injury at 125 g/ha: 125 g ai/ha, postemergence, visual injury vs untreated controls after approx. 10 d, 0 = no effect, 100 = complete control, read-out: Wheat plant response rating (0 to 100 scale); for plant injury at 31 g/ha: Postemergence, 31 g ai/ha, visual injury after approx. 10 d, 0 to 100 scale, 0 no effect, 100 complete control, read-out: Plant response rating, Wheat
Outline: as §1

[11] = system: blackgrass (Alopecurus myosuroides); experiment: Test A postemergence; conditions: Alopecurus myosuroides, post-emergence, 240 h; for pest or weed control at 125 g/ha: 125 g ai/ha, postemergence, visual injury on 0 to 100 scale (0 no effect, 100 complete control), approx. 10 d, read-out: Blackgrass plant response rating; for pest or weed control at 31 g/ha: Postemergence, 31 g ai/ha, visual injury after approx. 10 d, 0 to 100 scale, 0 no effect, 100 complete control, read-out: Plant response rating, Blackgrass
Outline: as §1

[12] = system: Kochia (Kochia scoparia); experiment: Test A postemergence; conditions: Bassia scoparia, post-emergence, 240 h; for pest or weed control at 125 g/ha: 125 g ai/ha, postemergence, visual injury on 0 to 100 scale (0 no effect, 100 complete control), approx. 10 d, read-out: Kochia plant response rating; for pest or weed control at 31 g/ha: Postemergence, 31 g ai/ha, visual injury after approx. 10 d, 0 to 100 scale, 0 no effect, 100 complete control, read-out: Plant response rating, Kochia
Outline: as §1

[13] = system: ryegrass, Italian (Italian ryegrass, Lolium multiflorum); experiment: Test A postemergence; conditions: Lolium multiflorum, post-emergence, 240 h; for pest or weed control at 125 g/ha: 125 g ai/ha, postemergence, visual injury vs untreated controls after approx. 10 d, 0 = no effect, 100 = complete control, read-out: Ryegrass, Italian plant response rating (0 to 100 scale); for pest or weed control at 31 g/ha: Postemergence, 31 g ai/ha, visual injury after approx. 10 d, 0 to 100 scale, 0 no effect, 100 complete control, read-out: Plant response rating, Ryegrass, Italian
Outline: as §1

[14] = system: giant foxtail (Setaria faberii); experiment: Test A postemergence; conditions: Setaria faberi, post-emergence, 240 h; for pest or weed control at 125 g/ha: 125 g ai/ha, postemergence, visual injury on 0 to 100 scale (0 no effect, 100 complete control), approx. 10 d, read-out: Foxtail, Giant plant response rating; for pest or weed control at 31 g/ha: Postemergence, 31 g ai/ha, visual injury after approx. 10 d, 0 to 100 scale, 0 no effect, 100 complete control, read-out: Plant response rating, Foxtail, Giant
Outline: as §1

[15] = system: pigweed (Amaranthus retroflexus); experiment: Test A postemergence; conditions: Amaranthus retroflexus, post-emergence, 240 h; for pest or weed control at 125 g/ha: 125 g ai/ha, postemergence, visual injury vs untreated controls after approx. 10 d, 0 = no effect, 100 = complete control, read-out: Pigweed plant response rating (0 to 100 scale); for pest or weed control at 31 g/ha: Postemergence, 31 g ai/ha, visual injury after approx. 10 d, 0 to 100 scale, 0 no effect, 100 complete control, read-out: Plant response rating, Pigweed
Outline: as §1

[16] = system: barnyardgrass (Echinochloa crus-galli); experiment: Test A postemergence; conditions: Echinochloa crus-galli, post-emergence, 240 h; for pest or weed control at 125 g/ha: 125 g ai/ha, postemergence, visual injury on 0 to 100 scale (0 no effect, 100 complete control), approx. 10 d, read-out: Barnyardgrass plant response rating; for pest or weed control at 31 g/ha: Postemergence, 31 g ai/ha, visual injury after approx. 10 d, 0 to 100 scale, 0 no effect, 100 complete control, read-out: Plant response rating, Barnyardgrass
Outline: as §1

[17] = system: ducksalad (Heteranthera limosa); experiment: Test B flooded paddy test; conditions: Heteranthera limosa, 250 g ai/ha, Flood; 0 to 100 scale where 0 is no effect and 100 is complete control; read-out: Ducksalad plant response rating
Outline: (§2)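 Plants at 2-leaf stage flooded to 3 cm above soil, with compounds applied directly to paddy water and that depth maintained. Plants kept in greenhouse 13–15 d. Visual rating versus controls on a 0 (no effect) to 100 (complete control) scale.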

[18] = system: sedge, umbrella (small-flower umbrella sedge, Cyperus difformis); experiment: Test B flooded paddy test; conditions: Cyperus difformis, 250 g ai/ha, Flood; 0 to 100 scale where 0 is no effect and 100 is complete control; read-out: Sedge, Umbrella plant response rating
Outline: as §2

[19] = system: barnyardgrass (Echinochloa crus-galli); experiment: Test B flooded paddy test; conditions: Echinochloa crus-galli, 250 g ai/ha, Flood; 0 to 100 scale where 0 is no effect and 100 is complete control; read-out: Barnyardgrass plant response rating
Outline: as §2

[20] = system: rice (Oryra sativa); experiment: Test B flooded paddy test; conditions: Oryza sativa, 250 g ai/ha, Flood; 0 to 100 scale where 0 is no effect and 100 is complete control; read-out: Rice plant response rating
Outline: as §2

SMILES | pest or weed control at 31 g/ha [1] | pest or weed control at 125 g/ha [1] | pest or weed control at 31 g/ha [2] | pest or weed control at 125 g/ha [2] | pest or weed control at 31 g/ha [3] | pest or weed control at 125 g/ha [3] | pest or weed control at 31 g/ha [4] | pest or weed control at 125 g/ha [4] | pest or weed control at 31 g/ha [5] | pest or weed control at 125 g/ha [5] | pest or weed control at 31 g/ha [6] | pest or weed control at 125 g/ha [6] | pest or weed control at 125 g/ha [7] | pest or weed control at 31 g/ha [7] | plant injury at 125 g/ha [8] | Corn plant response rating (crop injury, 0 = no effect, 100 = complete kill) at 31 g/ha [8] | pest or weed control at 125 g/ha [9] | pest or weed control at 31 g/ha [9] | plant injury at 125 g/ha [10] | plant injury at 31 g/ha [10] | also measured
CSc1ccccc1NC(=O)[C@H]1C(=O)N(C)C[C@@H]1c1ccc(F)c(Oc2ccccc2)c1 [Compound 1142] | 0% | 0% | 0% | 0% | 0% | 0% | 30% | 90% | 0% | 60% | 0% | 30% | 30% | 0% | 0% | 0% | 0% | 0% | 0% | 0% | pest or weed control at 125 g/ha [11]: 0%; pest or weed control at 31 g/ha [11]: 0%; pest or weed control at 125 g/ha [12]: 0%; pest or weed control at 31 g/ha [12]: 0%; pest or weed control at 125 g/ha [13]: 0%; pest or weed control at 31 g/ha [13]: 0%; pest or weed control at 125 g/ha [14]: 60%; pest or weed control at 31 g/ha [14]: 0%; pest or weed control at 125 g/ha [15]: 30%; pest or weed control at 31 g/ha [15]: 0%; pest or weed control at 125 g/ha [16]: 30%; pest or weed control at 31 g/ha [16]: 0%; pest or weed control at 250 g/ha [17]: 0%; pest or weed control at 250 g/ha [18]: 0%; pest or weed control at 250 g/ha [19]: 0%; pest or weed control at 250 g/ha [20]: 0%
CN1C[C@H](c2ccc(F)c(Oc3ccccc3)c2)[C@@H](C(=O)Nc2ccccc2S(C)(=O)=O)C1=O [Compound 1143] | 0% | 0% | 0% | 0% | 0% | 0% | 20% | 80% | 0% | 0% | 0% | 40% | 0% | 0% | 0% | 0% | 0% | 0% | 0% | 0% | pest or weed control at 125 g/ha [11]: 0%; pest or weed control at 31 g/ha [11]: 0%; pest or weed control at 125 g/ha [12]: 0%; pest or weed control at 31 g/ha [12]: 0%; pest or weed control at 125 g/ha [13]: 0%; pest or weed control at 31 g/ha [13]: 0%; pest or weed control at 125 g/ha [14]: 40%; pest or weed control at 31 g/ha [14]: 0%; pest or weed control at 125 g/ha [15]: 20%; pest or weed control at 31 g/ha [15]: 0%; pest or weed control at 125 g/ha [16]: 50%; pest or weed control at 31 g/ha [16]: 0%; pest or weed control at 250 g/ha [17]: 0%; pest or weed control at 250 g/ha [18]: 0%; pest or weed control at 250 g/ha [19]: 0%; pest or weed control at 250 g/ha [20]: 0%
